Assay results taken from patent publication US20090221559A1 (priority 2005, published 2009).
Where two headings read alike, the source gives them in different places.

Experiments:
[1] = target: T1, HCV NS5B polymerase (His-tagged, C-terminal 21 amino acid deleted NS5B, HC-J4) (Hepatitis C virus genotype 1b, UniProt O92972); assay: NS5b polymerase assay (biochemical RdRp assay, 3H-GTP incorporation, SPA beads); set-up: species or system HCV genotype 1b
T1 construct: The cDNA encoding NS5B amino acid 1-570 (HC-J4, genotype 1b); His tag (His6, from pET-21b) (C); made in house; host or cells: E. coli BL21 (DE3)
Outline: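 His-tagged C-terminal-21-aa-deleted NS5B (genotype 1b, HC-J4) at 200 nM was preincubated 15 min at RT with compound on 5′-biotinylated oligo(rG13)/poly(rC) template/primer before NTPs. Reaction with 600 nM GTP plus 0.1 μCi 3H-GTP and 5 mM MgCl2 in Tris pH 7.5 ran 2 h at 25 °C. Stopped with EDTA/SPA beads for incorporation counting.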

[2] = tested on: HCV replicon RNA replication in Huh-7 luc/neo (Huh-Luc) cells; assay: HCV replicon assay (stable replicon cell reporter assay, luciferase read-out); format: cell-based, HCV type 1b
Outline: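 Huh-7 cells stably carry a bicistronic HCV 1b NS3-NS5B subgenomic replicon with firefly luciferase and neo markers. Cells were plated with compound across a concentration range and incubated three days. Replication was measured as luciferase activity to give dose-response curves.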

[3] = NS5B Polymerase Assay IC50 (μM)
[4] = Hepatitis C virus, Huh-7, 72 h, read-out: Replicon Assay EC50 (μM), Huh-Luc cells, incubation of three days, luciferase activity
[5] = 200 nM enzyme, 3H-GTP incorporation, 2 h at 25° C., read-out: NS5B Polymerase Assay IC50
[6] = Huh-Luc cells, three days incubation, luciferase activity, read-out: Replicon Assay EC50
[7] = NS5B Polymerase Assay IC50, 200 nM enzyme, 3H-GTP incorporation, 2 h at 25° C.
[8] = Hepatitis C virus, Huh-7, 72 h, read-out: Replicon Assay EC50, Huh-Luc cells, three days incubation, luciferase activity

T1 sequence (O92972 2417-3000, looked up, stated change not applied): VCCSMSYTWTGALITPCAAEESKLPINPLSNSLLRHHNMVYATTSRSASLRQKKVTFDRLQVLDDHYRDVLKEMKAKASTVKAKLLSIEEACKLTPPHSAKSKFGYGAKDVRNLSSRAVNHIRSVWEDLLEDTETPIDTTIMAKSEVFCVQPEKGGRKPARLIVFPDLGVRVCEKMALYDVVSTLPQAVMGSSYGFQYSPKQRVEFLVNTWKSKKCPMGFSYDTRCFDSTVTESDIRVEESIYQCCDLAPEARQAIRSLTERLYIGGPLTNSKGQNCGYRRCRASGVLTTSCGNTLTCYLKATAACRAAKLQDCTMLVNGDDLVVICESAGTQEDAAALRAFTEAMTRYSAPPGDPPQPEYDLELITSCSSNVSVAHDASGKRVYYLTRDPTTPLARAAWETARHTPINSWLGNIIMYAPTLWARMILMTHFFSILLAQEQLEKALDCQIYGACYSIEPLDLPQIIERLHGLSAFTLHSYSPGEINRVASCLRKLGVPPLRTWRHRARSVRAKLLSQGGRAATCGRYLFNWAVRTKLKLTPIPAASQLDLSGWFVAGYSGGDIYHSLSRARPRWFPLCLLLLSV

Structure (SMILES) | IC50 [1, 3] [µM] | EC50 [2, 4] [µM] | IC50 [1, 7] [µM] | EC50 [2, 8] [µM] | further results
COc1ccc(C2CC(=O)C3=C(C2)Nc2ccccc2NC3c2ccc(OCc3ccccc3)cc2)cc1 (centres unmarked) [compound 388] | > 42.7 | 6.35 | – | – | –
CCCCCC(=O)N1c2ccccc2NC2=C(C(=O)CC(c3ccccc3OCCC)C2)C1c1ccc(OC)cc1 (centres unmarked) [compound 222] | – | – | – | – | IC50 [1, 5]: > 42.7 µM; EC50 [2, 6]: 7.73 µM
COc1ccc(C2C3=C(CC(c4ccc(C)cc4)CC3=O)Nc3ccccc3N2C(=O)c2ccccc2)cc1OC (mixture of isomers) [compound 197] | – | – | – | – | IC50 [1, 5]: > 33.3 µM; EC50 [2, 6]: 8.97 µM
COc1ccc([C@@H]2CC(=O)C3=C(C2)Nc2ccccc2N[C@H]3c2c[nH]c3ccccc23)cc1 [compound 489] | > 42.7 | 5.91 | – | – | –
O=C1C[C@@H](c2ccc(Cl)cc2)CC2=C1[C@H](c1cccnc1)Nc1ccccc1N2 [compound 483] | > 42.7 | 15.5 | – | – | –
COc1ccc(C2CC(=O)C3=C(C2)Nc2ccccc2NC3c2ccc([N+](=O)[O-])cc2)cc1 (centres unmarked) [compound 387] | > 42.7 | 5.56 | – | – | –
CC(=O)N1c2ccccc2NC2=C(C(=O)CC(C)C2)C1c1ccc(Cl)cc1Cl (centres unmarked) [compound 294, 10-acetyl-11-(2,4-dichlorophenyl)-3-methyl-2,3,4,5,10,11-hexahydro-1H-dibenzo[b,e][1,4]diazepin-1-one] | – | – | 10.4 | 42 | –
COc1ccc(C2C3=C(CC(C)(C)CC3=O)Nc3ccccc3N2C(C)=O)cc1COc1ccc(F)cc1 (centres unmarked) [compound 59] | – | – | > 42.7 | 5.74 | –
O=C1CC(c2ccccc2OCc2ccccc2)CC2=C1C(C(Br)=Cc1ccccc1)Nc1ccccc1N2 (mixture of isomers) [compound 497] | > 133 | 3.79 | – | – | –
CC(=O)N1c2ccccc2NC2=C(C(=O)CC(C)(C)C2)C1c1cc2c(cc1Br)OCO2 (centres unmarked) [compound 277] | – | – | > 42.7 | 13.6 | –
O=C1C[C@@H](c2ccc3c(c2)OCO3)CC2=C1[C@H](c1ccc3c(c1)OCO3)Nc1ccccc1N2 [compound 492] | > 42.7 | 11 | – | – | –
CCN(CC)c1ccc(C2CC(=O)C3=C(C2)Nc2ccccc2NC3c2ccccc2)cc1 (centres unmarked) [compound 376] | > 42.7 | 9.45 | – | – | –
CCC(=O)N1c2ccccc2NC2=C(C(=O)CC(C)(C)C2)C1c1cccc(Cl)c1Cl (centres unmarked) [compound 40] | – | – | > 42.7 | > 24.7 | –
CCC(=O)N1c2ccccc2NC2=C(C(=O)CC(C)(C)C2)C1c1ccc(-c2ccccc2[N+](=O)[O-])o1 (centres unmarked) [compound 241] | – | – | > 42.7 | 17.1 | –
COc1ccc(C2C3=C(CC(C)(C)CC3=O)Nc3ccccc3N2C(=O)c2ccc(Cl)cc2)cc1OC (centres unmarked) [compound 68] | – | – | > 42.7 | 23.1 | –
COc1ccc(C2CC(=O)C3=C(C2)Nc2ccccc2NC3c2ccc(OCc3ccccc3)c(OC)c2)cc1OC (centres unmarked) [compound 405] | > 42.7 | 5.34 | – | – | –
CC(=O)N1c2ccccc2NC2=C(C(=O)CC(c3ccccc3OCc3ccccc3)C2)C1C(Br)=Cc1ccccc1 (mixture of isomers) [compound 299] | – | – | > 133 | 2.36 | –
CCOc1cccc(C2Nc3ccccc3NC3=C2C(=O)CC(c2ccc(Cl)cc2)C3)c1 (centres unmarked) [compound 379] | > 42.7 | 6.79 | – | – | –
CC1(C)CC(=O)C2=C(C1)Nc1ccccc1N(C(=O)Cc1ccccc1)C2c1ccc(Cl)cc1 (centres unmarked) [compound 20] | – | – | > 42.6 | 6.58 | –
CCCCC(=O)N1c2ccccc2NC2=C(C(=O)CC(C)(C)C2)C1c1ccc(F)cc1 (centres unmarked) [compound 10] | – | – | > 33.3 | 19.5 | –
CC(=O)N1c2ccccc2NC2=C(C(=O)CC(C)(C)C2)C1c1ccc(O)cc1 (centres unmarked) [compound 137, 10-acetyl-11-(4-hydroxyphenyl)-3,3-dimethyl-2,3,4,5,10,11-hexahydro-1H-dibenzo[b,e][1,4]diazepin-1-one] | – | – | > 133 | > 100 | –
CC1(C)CC(=O)C2=C(C1)Nc1ccccc1N(C(=O)C(F)(F)F)C2c1ccc2c(c1)OCO2 (centres unmarked) [compound 266] | – | – | > 42.7 | 24 | –
